What was measured:
[1] = test system: COS-7 cells expressing EGFP fused to 19 alanines (A19); assay: Aggregate formation and abnormal cell nuclei in transiently transfected COS-7 cells expressing A19; assay type: cell-based, African green monkey; settings: for cell death (abnormal nuclei) in A19-expressing cells / proportions of A19-expressing cells with aggregates / appearance (size, number) of A19 aggregates in cells with aggregates: 48 hours after transfection; for cell death (abnormal nuclei) in A19-expressing cells: drug for 15 hours before fixing, same concentrations; for cell death (abnormal nuclei) in A19-expressing cells / proportions of A19-expressing cells with aggregates: vs untreated; for proportions of A19-expressing cells with aggregates: drug for 15 hours before fixing: 10 mM 3-MA, 0.5 mM DMA, 200 nM BafA1, 0.2 μg/ml rapamycin, 10 μM epoxomicin; for appearance (size, number) of A19 aggregates in cells with aggregates: immunofluorescence, drug 15 hours
Text: (§1) Mammalian expression vectors comprising EGFP (pEGFP-C1, Clontech) fused at its C-terminus with a Huntington's Disease gene exon 1 fragment with 74 polyglutamine repeats (Q74) or a polyalanine stretch of 19 repeats (A19) were used (Rankin, J. et al (2000) Biochem. J., 348, 15-19; Narain, Y. et al (1999) J. Med. Genet., 36, 739-746.). A Haemagglutinin-tagged Huntington's Disease gene exon 1 fragment with 74 polyglutamine repeats in pHM6 vector (Q74-HA) was also used. The PC12 stable lines expressing exon 1 of Huntington gene were as described in Wyttenbach A. et al., (2001) Hum. Mol. Genet. 10 1829-45.
(§2) African green monkey kidney cells (COS-7) were grown in Dulbecco's Modified Eagle Medium (DMEM, Sigma) supplemented with 10% Fetal Bovine Serum (FBS), 100 U/ml Penicillin/Streptomycin, 2 mM L-Glutamine and 1 mM Sodium Pyruvate at 37° C., 5% Carbon dioxide. The cells were grown on coverslips in six-well plates for immunofluorescence analysis, or were directly grown in six-well plates to 60-80% confluency for 24 hours for western blot analysis. Transfection was done using LipofectAMINE reagent (Invitrogen) using the manufacturer's protocol. The transfection mixture was replaced by normal culture medium after 5 hours incubation at 37° C. and the transfected cells were analysed by immunofluorescence or immunoblot 48 hours after transfection. The cells were left untreated or treated with 10 mM 3-methyl adenine (3-MA, Sigma), 0.5 mM N^6, N^6, Dimethyl adenosine (DMA, Sigma), 0.2 μg/ml Rapamycin (Sigma), 200 nM Bafilomycin A1 (BafA1, Sigma), 10 μM Lactacystin (Sigma) or 10 μM epoxomicin (Affinity research products ltd.) for 15 hours before fixation for immunofluorescence or processing for western blots. DMA, BafA1, epoxomicin and rapamycin were dissolved in DMSO and 3-MA and lactacystin were in water. Equal amounts of water or DMSO were added to the untreated controls, where relevant. The cells on coverslips were rinsed with 1×PBS, fixed with 4% paraformaldehyde in 1×PBS for 20 min and mounted in antifadent supplemented with 4′,6-diamidino-2-phenylindole (DAPI, 3 μg/ml, Sigma) to allow visualisation of nuclear morphology. The PC12 stable cells were maintained at 75 μg/ml hygromycin in standard medium consisting of high glucose DMEM (Sigma) with 100 U/ml penicillin/streptomycin, 2 mM L-glutamine (Invitrogen), 10% heat-inactivated horse serum (Invitrogen), 5% Tet-approved fetal bovine serum (FBS) (Clontech) and 100 μg/ml G418 (Invitrogen) at 37° C., 10% CO2. The cells were seeded at 1-2×10^5 per well in 6-well plates and were induced with 1 μg/ml doxycycline (Sigma) for 8 hours. The expression of transgenes was switched off by removing doxycycline from the medium. Cells were either left untreated or treated with 3-MA, BafA1, epoxomicin, lactacystin, rapamycin, 10 μg/ml cycloheximide (Sigma) or cycloheximide+rapamycin at the concentrations specified above for 24, 48 or 72 hours and the medium with the inhibitors/activator changed every 24 hours. The cells were then scraped off from the wells into 1.5 ml eppendorf tubes, pelleted at 8000 rpm and washed twice with 1×PBS. They were either fixed with 4% paraformaldehyde for 20 minutes and mounted in DAPI over coverslips on glass slides or processed for western blot analysis. CCI-779 was supplied by Wyeth Pharmaceuticals (Philadelphia). For tissue culture experiments, a stock solution of 1M in ethanol was prepared the day of experiment and was diluted in the appropriate medium
(§3) The pellets for westerns from COS-7 or PC12 cells were lysed on ice in Laemmli buffer (62.5 mM Tris-HCl pH6.8, 5% β-mercaptoethanol, 10% glycerol, and 0.01% bromophenol blue) for 30 min in the presence of protease inhibitors (Roche Diagnostics). The lysates were subjected to SDS-PAGE (10%) electrophoresis and proteins transferred onto nitrocellulose membrane (Amersham Pharmacia Biotech). […]

[2] = test system: COS-7 cells expressing an exon 1 fragment of the HD gene with 74 glutamines (Q74); assay: Aggregate formation and abnormal cell nuclei in transiently transfected COS-7 cells expressing Q74; assay type: cell-based, African green monkey; settings: for cell death (apoptotic nuclear morphology) in Q74-expressing cells / proportions of Q74-expressing cells with aggregates / appearance (size, number) of Q74 aggregates in cells with aggregates: 48 hours after transfection; for cell death (apoptotic nuclear morphology) in Q74-expressing cells: drug for 15 hours before fixing, same concentrations; for cell death (apoptotic nuclear morphology) in Q74-expressing cells / proportions of Q74-expressing cells with aggregates: vs untreated; for proportions of Q74-expressing cells with aggregates: drug for 15 hours before fixing: 10 mM 3-MA, 0.5 mM DMA, 200 nM BafA1, 0.2 μg/ml rapamycin, 10 μM epoxomicin, 10 μM lactacystin; for appearance (size, number) of Q74 aggregates in cells with aggregates: immunofluorescence, drug 15 hours
Text: as §1, §2, §3

[3] = test system: PC12 cell line expressing EGFP-tagged HD exon 1 with Q74; assay: Turnover of Q74 protein and aggregates in stable doxycycline-inducible PC12 cells after switching expression off; assay type: cell-based, rat; settings: for numbers of aggregate containing cells / visible aggregates: vs time-matched control; for aggregate formation as high molecular weight fraction on the stack (western blot): 72 hours after switching off the expression, vs time-matched untreated controls
Protocol: as §2
The pellets for westerns from COS-7 or PC12 cells were lysed on ice in Laemmli buffer (62.5 mM Tris-HCl pH6.8, 5% β-mercaptoethanol, 10% glycerol, and 0.01% bromophenol blue) for 30 min in the presence of protease inhibitors (Roche Diagnostics). The lysates were subjected to SDS-PAGE (10%) electrophoresis and proteins transferred onto nitrocellulose membrane (Amersham Pharmacia Biotech). The primary antibodies used include mouse monoclonal anti-GFP antibody (8362-1, Clontech) at 1:2000, rabbit monoclonal anti-actin antibody (A2066, Sigma) at 1:3000, mouse monoclonal anti-tubulin antibody (Clone DM 1A, Sigma) at 1:1000 and mouse monoclonal anti-HA antibody (Covance) at 1:1000. Blots were probed with Horse Radish Peroxidase (HRP) conjugated anti-mouse or anti-rabbit IgG (Bio Rad) at 1:2000. Bands were visualised using the ECL detection reagent (Amersham). […]

Compound	cell death (abnormal nuclei) in A19-expressing cells [1]	proportions of A19-expressing cells with aggregates [1]	cell death (apoptotic nuclear morphology) in Q74-expressing cells [2]	proportions of Q74-expressing cells with aggregates [2]	cell fluorescence (EGFP-Q74 clearance) ([3]; 8 h ON then 72 h OFF with drug, 0.2 μg/ml rapamycin, 10 μg/ml cycloheximide)	Q74 protein levels on a western blot ([3]; 8 h ON, then OFF with 0.2 μg/ml rapamycin, vs untreated control)	appearance (size, number) of A19 aggregates in cells with aggregates [1]	levels of the transgene protein (EGFP-A19) ([1]; western blot, 10 mM 3-MA)	appearance (size, number) of Q74 aggregates in cells with aggregates [2]	levels of an HA-tagged version of the HD exon 1 fragment with Q74 ([2]; western blot, 10 mM 3-MA)	levels of the transgene protein (EGFP-Q74) ([2]; western blot, 10 mM 3-MA)	numbers of aggregate containing cells / visible aggregates ([3]; 8 h ON then 72 h OFF with drug)	aggregate formation as high molecular weight fraction on the stack (western blot) [3]	cellular fluorescence ([3]; 8 h ON then 48 h OFF with 10 μM epoxomicin)	number of aggregate-containing cells ([3]; 8 h ON then 48 h OFF with 10 μM epoxomicin or 10 μM lactacystin, vs control)	heat shock protein 70 ([3]; epoxomicin treatment)
rapamycin	decrease	decrease	no significant change	no significant change	loss of fluorescence	decrease	–	–	–	–	–	–	–	–	–	–
Cn1cnc(N)c2ncnc1-2 [3-MA, 3-methyl adenine]	increase	increased	increase	increased	–	–	increased their apparent size and number	increase	increased their apparent size and number	increase	increase	increased	increased aggregate formation	–	–	–
CO/C1=C\C(C)=C\[C@@H](C)[C@@H](O)[C@@H](C)C/C(C)=C/C=C/[C@H](OC)[C@@H]([C@@H](C)[C@@H](O)[C@H](C)[C@@]2(O)C[C@@H](O)[C@H](C)[C@@H](C(C)C)O2)OC1=O [BafA1, Bafilomycin A1]	increase	increased	increase	increased	–	–	increased size	–	increased size	–	–	increased	increased aggregate formation	–	–	–
CC[C@H](C)[C@H](NC(=O)[C@H]([C@@H](C)CC)N(C)C(C)=O)C(=O)N[C@H](C(=O)N[C@@H](CC(C)C)C(=O)[C@@]1(C)CO1)[C@@H](C)O [epoxomicin]	–	increase	did not affect	did not affect	–	–	more aggregates in each aggregate-containing cell	–	more aggregates in each aggregate-containing cell	–	–	–	–	obvious increase	reduction	marked increase

Reference: patent US20070155771A1, “Methods and means for treating protein conformational disorders” (priority 2003, published 2007)
